# Results published in ChEMBL document CHEMBL6134892, “Discovery and Evaluation of DA-302168S as an Efficacious Oral Small-Molecule Glucagon-Like Peptide-1 Receptor Agonist” (J Med Chem, 2025).
# Assays:
# [1] = biological target: T1, Cytochrome P450 2B6 (Homo sapiens, UniProt P20813); test: Inhibition of CYP2B6 in human liver microsomes incubated for 10 mins in presence of NADPH by LC-MS/MS analysis; format: ADME, Microsome
# T1 sequence (P20813 whole entry): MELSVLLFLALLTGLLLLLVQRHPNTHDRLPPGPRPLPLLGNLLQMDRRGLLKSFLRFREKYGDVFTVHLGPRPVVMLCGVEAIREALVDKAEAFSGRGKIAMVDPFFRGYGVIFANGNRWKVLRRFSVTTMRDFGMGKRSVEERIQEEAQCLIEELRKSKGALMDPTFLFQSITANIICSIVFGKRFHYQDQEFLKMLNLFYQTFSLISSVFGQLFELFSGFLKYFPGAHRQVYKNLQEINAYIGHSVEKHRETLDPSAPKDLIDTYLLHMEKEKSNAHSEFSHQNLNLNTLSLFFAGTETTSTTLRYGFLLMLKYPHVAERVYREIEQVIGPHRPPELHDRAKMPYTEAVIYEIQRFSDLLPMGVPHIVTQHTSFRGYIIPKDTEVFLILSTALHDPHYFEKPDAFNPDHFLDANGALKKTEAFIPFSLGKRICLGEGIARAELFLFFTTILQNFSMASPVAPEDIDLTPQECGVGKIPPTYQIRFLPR
# [2] = biological target: T2, Cytochrome P450 1A2 (Homo sapiens, UniProt P05177); test: Inhibition of CYP1A2 in human liver microsomes incubated for 10 mins in presence of NADPH by LC-MS/MS analysis; format: ADME, Microsome
# T2 sequence (P05177 whole entry): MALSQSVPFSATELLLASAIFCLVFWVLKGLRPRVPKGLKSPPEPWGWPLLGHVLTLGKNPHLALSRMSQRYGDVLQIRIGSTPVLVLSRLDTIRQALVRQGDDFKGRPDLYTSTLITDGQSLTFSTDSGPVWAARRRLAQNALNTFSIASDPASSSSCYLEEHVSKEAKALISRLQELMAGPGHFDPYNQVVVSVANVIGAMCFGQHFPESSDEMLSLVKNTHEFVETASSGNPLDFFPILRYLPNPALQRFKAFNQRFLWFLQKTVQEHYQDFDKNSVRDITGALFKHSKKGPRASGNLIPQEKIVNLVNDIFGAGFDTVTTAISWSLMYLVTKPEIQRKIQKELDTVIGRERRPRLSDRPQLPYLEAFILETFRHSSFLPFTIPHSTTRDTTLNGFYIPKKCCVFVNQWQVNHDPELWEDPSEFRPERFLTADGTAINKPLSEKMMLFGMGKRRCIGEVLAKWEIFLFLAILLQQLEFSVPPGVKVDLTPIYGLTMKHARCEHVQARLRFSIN
# [3] = Tmax in Sprague-Dawley rat at 10 mg/kg, po measured up to 24 hrs by LC-MS/MS analysis; format: ADME, organism-based; details: in vivo
# [4] = Metabolic stability in human liver microsomes assessed as half life at 1 uM measured after 5 to 45 mins in presence of NADPH by LC-MS/MS analysis; format: ADME, Microsome; details: time 5-45 min
# [5] = Metabolic stability in human liver microsomes assessed as hepatic clearance at 1 uM measured after 5 to 45 mins in presence of NADPH by LC-MS/MS analysis; format: ADME, Microsome; details: time 5-45 min
# [6] = AUC last in Sprague-Dawley rat at 10 mg/kg, po measured up to 24 hrs by LC-MS/MS analysis; format: ADME, organism-based; details: in vivo
# [7] = biological target: Cytochrome P450 2C9 (Homo sapiens, UniProt P11712); test: Inhibition of CYP2C9 in human liver microsomes incubated for 10 mins in presence of NADPH by LC-MS/MS analysis; format: ADME, Microsome
# Chain of Cytochrome P450 2C9 (P11712 whole entry): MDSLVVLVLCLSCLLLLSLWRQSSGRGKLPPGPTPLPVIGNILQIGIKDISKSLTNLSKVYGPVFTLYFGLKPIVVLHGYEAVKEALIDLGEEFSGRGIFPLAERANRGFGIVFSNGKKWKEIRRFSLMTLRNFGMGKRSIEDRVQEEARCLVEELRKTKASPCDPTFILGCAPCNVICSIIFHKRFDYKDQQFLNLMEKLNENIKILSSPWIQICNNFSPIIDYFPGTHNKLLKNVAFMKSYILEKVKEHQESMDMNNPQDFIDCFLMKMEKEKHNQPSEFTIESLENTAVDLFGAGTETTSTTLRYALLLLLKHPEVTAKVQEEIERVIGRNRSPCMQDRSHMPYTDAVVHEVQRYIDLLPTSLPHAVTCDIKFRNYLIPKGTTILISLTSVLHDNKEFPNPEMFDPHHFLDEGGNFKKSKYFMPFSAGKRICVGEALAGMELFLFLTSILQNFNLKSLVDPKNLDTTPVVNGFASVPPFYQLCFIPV
# [8] = biological target: Cytochrome P450 3A4 (Homo sapiens, UniProt P08684); test: Inhibition of CYP3A4 in human liver microsomes using testosterone as substrate incubated for 5 mins in presence of NADPH by LC-MS/MS analysis; format: ADME, Microsome
# Chain of Cytochrome P450 3A4 (P08684 whole entry): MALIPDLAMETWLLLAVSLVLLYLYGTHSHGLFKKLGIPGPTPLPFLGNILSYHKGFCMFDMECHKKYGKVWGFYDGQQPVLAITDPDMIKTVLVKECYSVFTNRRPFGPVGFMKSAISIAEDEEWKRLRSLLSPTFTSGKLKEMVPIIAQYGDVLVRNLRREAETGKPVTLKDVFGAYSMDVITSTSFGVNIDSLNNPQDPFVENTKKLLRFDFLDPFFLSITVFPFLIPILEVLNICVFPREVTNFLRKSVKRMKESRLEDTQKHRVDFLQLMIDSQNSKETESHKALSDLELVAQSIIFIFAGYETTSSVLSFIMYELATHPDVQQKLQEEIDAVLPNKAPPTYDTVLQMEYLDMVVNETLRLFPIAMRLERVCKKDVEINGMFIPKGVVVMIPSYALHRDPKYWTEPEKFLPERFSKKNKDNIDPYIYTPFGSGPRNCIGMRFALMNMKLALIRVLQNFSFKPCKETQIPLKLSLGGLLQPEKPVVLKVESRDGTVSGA
# [9] = biological target: T3, Cytochrome P450 2C8 (Homo sapiens, UniProt P10632); test: Inhibition of CYP2C8 in human liver microsomes incubated for 20 mins in presence of NADPH by LC-MS/MS analysis; format: ADME, Microsome
# T3 sequence (P10632 whole entry): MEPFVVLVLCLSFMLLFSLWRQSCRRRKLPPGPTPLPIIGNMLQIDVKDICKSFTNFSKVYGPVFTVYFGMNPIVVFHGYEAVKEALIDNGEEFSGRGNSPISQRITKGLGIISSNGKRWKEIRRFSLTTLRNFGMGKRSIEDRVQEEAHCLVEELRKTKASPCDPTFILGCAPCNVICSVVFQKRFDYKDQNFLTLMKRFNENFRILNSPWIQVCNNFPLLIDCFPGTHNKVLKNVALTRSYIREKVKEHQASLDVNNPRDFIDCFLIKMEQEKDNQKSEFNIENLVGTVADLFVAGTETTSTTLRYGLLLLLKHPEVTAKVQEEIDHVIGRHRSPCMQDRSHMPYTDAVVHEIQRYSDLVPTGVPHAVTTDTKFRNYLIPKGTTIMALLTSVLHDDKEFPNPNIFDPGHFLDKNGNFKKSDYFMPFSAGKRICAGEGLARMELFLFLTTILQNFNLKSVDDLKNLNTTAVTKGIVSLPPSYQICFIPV
# [10] = Metabolic stability in human liver microsomes assessed as intrinsic clearance at 1 uM measured after 5 to 45 mins in presence of NADPH by LC-MS/MS analysis; format: ADME, Microsome; details: time 5-45 min, read-out: CLH
# [11] = biological target: Cytochrome P450 2C19 (Homo sapiens, UniProt P33261); test: Inhibition of CYP2C19 in human liver microsomes incubated for 45 mins in presence of NADPH by LC-MS/MS analysis; format: ADME, Microsome
# Chain of Cytochrome P450 2C19 (P33261 whole entry): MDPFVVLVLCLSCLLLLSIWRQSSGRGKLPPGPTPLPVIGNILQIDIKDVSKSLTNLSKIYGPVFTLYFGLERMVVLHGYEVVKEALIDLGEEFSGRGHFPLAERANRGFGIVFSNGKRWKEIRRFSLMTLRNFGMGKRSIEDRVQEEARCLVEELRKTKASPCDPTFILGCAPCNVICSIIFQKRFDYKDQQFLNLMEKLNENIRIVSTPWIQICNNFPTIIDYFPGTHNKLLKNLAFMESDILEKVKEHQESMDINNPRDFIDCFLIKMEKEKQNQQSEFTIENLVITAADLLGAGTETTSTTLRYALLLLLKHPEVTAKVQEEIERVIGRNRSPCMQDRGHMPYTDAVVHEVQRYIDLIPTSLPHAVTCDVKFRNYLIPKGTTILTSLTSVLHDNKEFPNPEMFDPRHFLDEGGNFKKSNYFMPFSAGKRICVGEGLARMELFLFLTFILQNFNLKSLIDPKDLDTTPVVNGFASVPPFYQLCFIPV
# [12] = Cmax in Sprague-Dawley rat at 10 mg/kg, po measured up to 24 hrs by LC-MS/MS analysis; format: ADME, organism-based; details: in vivo
# [13] = biological target: Cytochrome P450 2D6 (Homo sapiens, UniProt P10635); test: Inhibition of CYP2D6 in human liver microsomes incubated for 20 mins in presence of NADPH by LC-MS/MS analysis; format: ADME, Microsome
# Chain of Cytochrome P450 2D6 (P10635 whole entry): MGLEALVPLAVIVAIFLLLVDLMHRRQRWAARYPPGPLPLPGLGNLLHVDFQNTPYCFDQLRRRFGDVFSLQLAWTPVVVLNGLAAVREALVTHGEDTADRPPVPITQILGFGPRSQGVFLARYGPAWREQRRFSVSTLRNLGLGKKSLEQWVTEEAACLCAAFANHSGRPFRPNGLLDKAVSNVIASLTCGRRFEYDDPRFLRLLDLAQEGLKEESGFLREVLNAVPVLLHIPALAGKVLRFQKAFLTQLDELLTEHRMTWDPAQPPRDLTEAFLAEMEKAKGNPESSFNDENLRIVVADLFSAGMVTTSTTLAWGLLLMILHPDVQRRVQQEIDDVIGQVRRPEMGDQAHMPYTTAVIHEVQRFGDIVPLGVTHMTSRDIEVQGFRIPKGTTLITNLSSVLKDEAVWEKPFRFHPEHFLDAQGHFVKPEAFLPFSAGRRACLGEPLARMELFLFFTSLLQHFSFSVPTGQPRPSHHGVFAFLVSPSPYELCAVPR
# [14] = biological target: Glucagon-like peptide 1 receptor (Homo sapiens, UniProt P43220); test: Agonist activity at human GLP-1R expressed in HEK293 cells coexpressing CRE LUC incubated for 5 hrs by luciferase based microplate reader analysis; format: functional, cell-based
# Chain of Glucagon-like peptide 1 receptor (P43220 whole entry): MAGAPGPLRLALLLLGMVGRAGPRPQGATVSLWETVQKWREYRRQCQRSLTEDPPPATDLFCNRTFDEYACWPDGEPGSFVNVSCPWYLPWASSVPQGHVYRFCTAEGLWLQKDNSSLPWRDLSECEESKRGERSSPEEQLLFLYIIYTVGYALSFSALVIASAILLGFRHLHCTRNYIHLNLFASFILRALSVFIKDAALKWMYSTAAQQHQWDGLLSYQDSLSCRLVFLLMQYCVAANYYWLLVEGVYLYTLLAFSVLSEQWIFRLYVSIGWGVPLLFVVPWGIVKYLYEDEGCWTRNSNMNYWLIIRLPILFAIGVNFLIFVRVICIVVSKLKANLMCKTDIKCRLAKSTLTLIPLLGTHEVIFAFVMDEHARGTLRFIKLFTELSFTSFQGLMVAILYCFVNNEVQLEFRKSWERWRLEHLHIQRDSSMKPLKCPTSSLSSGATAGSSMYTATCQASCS
# [15] = biological target: hERG (KCNH2) (Homo sapiens, UniProt Q12809); test: Inhibition of human ERG at 30 uM by whole-cell patch clamp technique relative to control; format: toxicity
# Chain of hERG (KCNH2) (Q12809 whole entry): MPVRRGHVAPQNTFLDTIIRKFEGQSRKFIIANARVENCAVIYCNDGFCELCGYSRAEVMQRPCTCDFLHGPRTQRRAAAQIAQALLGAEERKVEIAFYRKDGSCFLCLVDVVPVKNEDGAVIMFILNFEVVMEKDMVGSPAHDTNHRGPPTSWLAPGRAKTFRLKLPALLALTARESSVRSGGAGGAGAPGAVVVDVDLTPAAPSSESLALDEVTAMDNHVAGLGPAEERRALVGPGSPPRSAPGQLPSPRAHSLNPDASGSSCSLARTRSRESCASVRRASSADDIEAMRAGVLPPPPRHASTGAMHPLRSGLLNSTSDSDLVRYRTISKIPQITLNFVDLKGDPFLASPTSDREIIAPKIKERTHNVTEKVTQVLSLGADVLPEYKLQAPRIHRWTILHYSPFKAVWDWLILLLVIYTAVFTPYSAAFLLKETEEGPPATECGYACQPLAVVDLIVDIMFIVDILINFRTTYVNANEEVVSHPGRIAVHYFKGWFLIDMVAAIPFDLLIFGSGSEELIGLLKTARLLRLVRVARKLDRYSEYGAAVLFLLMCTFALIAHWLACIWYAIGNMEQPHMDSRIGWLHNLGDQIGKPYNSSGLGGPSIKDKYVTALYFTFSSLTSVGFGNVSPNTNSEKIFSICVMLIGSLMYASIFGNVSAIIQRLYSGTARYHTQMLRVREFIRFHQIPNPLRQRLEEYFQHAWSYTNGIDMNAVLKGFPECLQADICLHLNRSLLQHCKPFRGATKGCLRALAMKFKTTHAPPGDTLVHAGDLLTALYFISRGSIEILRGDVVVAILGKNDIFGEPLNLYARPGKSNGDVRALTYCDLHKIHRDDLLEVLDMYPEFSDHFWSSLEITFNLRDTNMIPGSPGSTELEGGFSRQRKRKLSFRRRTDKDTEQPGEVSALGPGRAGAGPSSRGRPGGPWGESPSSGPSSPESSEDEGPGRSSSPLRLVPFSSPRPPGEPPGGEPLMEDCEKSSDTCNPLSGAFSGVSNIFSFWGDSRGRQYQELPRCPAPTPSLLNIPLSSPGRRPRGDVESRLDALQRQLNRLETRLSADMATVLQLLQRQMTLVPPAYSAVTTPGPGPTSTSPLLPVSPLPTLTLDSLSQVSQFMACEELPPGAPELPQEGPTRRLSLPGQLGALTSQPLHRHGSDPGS
# [16] = biological target: Voltage-gated inwardly rectifying potassium channel KCNH2 (Homo sapiens, UniProt Q12809); test: Inhibition of human ERG by whole-cell patch clamp technique; format: toxicity
# Chain of Voltage-gated inwardly rectifying potassium channel KCNH2 (Q12809 whole entry): as above
half-life at 1 µM [4],CLhep predicted at 1 µM [5],CLint scaled at 1 µM [10],EC50 [14],SMILES,inhibition at 30 µM [15],IC50 [16],further results
1.8 h,9.04 mL/min/kg,16 mL/min/kg,,N#Cc1ccc(COc2cccc(C3CCN(Cc4nc5ccc(C(=O)O)cc5n4C[C@@H]4CCO4)CC3)n2)c(F)c1 [DANUGLIPRON],,,IC50 [1]: > 30 µM; IC50 [2]: > 30 µM; Tmax [3]: 0.63 h; AUC(0-t) at 24 h [6]: 714 ng·h/mL; IC50 [7]: > 30 µM; IC50 [8]: > 30 µM; IC50 [9]: 3.34 µM; IC50 [11]: > 30 µM; Cmax [12]: 197 ng/mL; IC50 [13]: > 30 µM
,,,0.0135 µM,Cc1cc(-c2cccc(OCc3ccc(C#N)cc3F)n2)ccc1Cc1nc2ccc(C(=O)O)cc2n1C[C@@H]1CCO1,,,
,,,,O=C(O)c1ccc2nc(Cc3ccc(-c4cccc(OCc5ccc(Cl)c6ccoc56)n4)cc3F)n(C[C@@H]3CCO3)c2c1,< 50%,> 30 µM,
,,,0.00755 µM,Cc1cc2c(Cl)ccc(COc3cccc(-c4ccc(Cc5nc6ccc(C(=O)O)cc6n5C[C@@H]5CCO5)c(F)c4)n3)c2o1,,,
1.93 h,8.7 mL/min/kg,15 mL/min/kg,,O=C(O)c1ccc2nc(Cc3ccc(-c4cccc(OCc5ccc(Cl)c6cc(Cl)oc56)n4)cc3F)n(C[C@@H]3CCO3)c2c1,< 50%,> 30 µM,
